Laboratory results: patent publication US20120245344A1 (NIPPON CHEMIPHAR CO., LTD., priority 2009, published 2012)
“Also recorded” adds a separate entry of the source.

Experiments:
[1] = target: T1, human GPR119 (Homo sapiens, UniProt Q8TDV5); assay: Measurement of intracellular cAMP in stable cell line expressing human GPR119 (GPR119 agonist effect); format: cell-based; conditions: for EC50: increase of intracellular cAMP, Flp-in T-Rex-293 cells expressing human GPR119, 37° C. for 30 minutes; for GPR119 agonist effect (in words): statement in words on Tables 10 to 13
T1 construct: expressed in transfected cells; host or cells: Flp-in T-Rex-293 cells (Invitrogen #R78007), plasmid pcDNA5/FRT/TO, expression induced with tetracycline
T1 sequence (Q8TDV5 1-335): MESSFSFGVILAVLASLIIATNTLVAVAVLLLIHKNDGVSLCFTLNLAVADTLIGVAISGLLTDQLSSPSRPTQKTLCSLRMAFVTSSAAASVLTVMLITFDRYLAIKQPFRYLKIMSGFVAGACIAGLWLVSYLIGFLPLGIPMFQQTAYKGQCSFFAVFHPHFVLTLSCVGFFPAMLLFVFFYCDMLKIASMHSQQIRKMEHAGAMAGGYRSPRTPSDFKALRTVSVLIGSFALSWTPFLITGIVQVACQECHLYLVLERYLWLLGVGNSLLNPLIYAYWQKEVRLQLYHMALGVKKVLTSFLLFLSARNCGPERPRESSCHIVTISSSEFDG
Source text: The GPR119 agonist effect is studied by measuring the effect of an analyte on increase of intracellular amount of cAMP in human GPR119 introduced cells. The testing method is described below.
Human GPR119 gene (NM 178471) is purchased from ATCC (ATCC No. 10807349), and is amplyfied according to PCR to form BamHI site at 5′ side and Apa I site at 3′ side. The primers are […] (sequence No. 1) and […] (sequence No. 2). The PCR conditions are described below.
The double-stranded DNA is thermally denatured using a DNA polymerase (KOD-Plus-Ver. 2; TOYOBO #KOD-211) at 98° C. for 10 seconds in one cycle. The denatured single-stranded DNA is annealed with the primers at 55° C. for 30 seconds. The DNA is subjected to an extension reaction at 68° C. for 1 minute and 15 seconds. The above-mentioned steps are repeated in 35 cycles. The PCR product is inserted into pcDNA5/FRT/TO (Invitrogen #V6520-20) plasmid. Flp-in T-Rex-293 cells (Invitorogen #R78007) are transfected with the obtained plasmid. The method of transfection is conducted in accordance with the protocol of the product.
(§1) The stable cell line expressing human GPR119 prepared in the above-mentioned method is plated on a 96-well plate at the concentration of 2,500 cells/well using Dulbecco's Modified Eagle Medium (DMEM) containing 10% fetal bovine serum (FBS). Twenty-four hours after plating, tetracyclin (Invitrogen #Q10019) is added at the final concentration of 20 ng/mL to induce hGPR119 gene expression. Twenty-four hours after, the medium is removed, and the cells are stimulated with an assay buffer (0.5 mM IBMX PBS (−)) containing the test compound at 37° C. for 30 minutes. The amount of the intracellular cAMP is measured using a commercially available kit (HitHunter™ cAMP XS+Assay: GE Healthcare #90007503) and a reader (FLUOstar Optima: BMG LABTECH). The test compound is dissolved in 100% DMSO, and added at the final concentration of 1%.
Human GPR119 gene (NM 178471) was purchased from ATCC (ATCC No. 10807349), and is amplyfied according to PCR to form BamHI site at 5′ side and Apa I site at 3′ side. The primers were […] (sequence No. 1) and […] (sequence No. 2). The PCR conditions are described below. The double-stranded DNA was thermally denatured using a DNA polymerase (KOD-Plus-Ver. 2; TOYOBO #KOD-211) at 98° C. for 10 seconds in one cycle. The denatured single-stranded DNA was annealed with the primers at 55° C. for 30 seconds. The DNA was subjected to an extension reaction at 68° C. for 1 minute and 15 seconds. The above-mentioned steps were repeated in 35 cycles. The PCR product was inserted into pcDNA5/FRT/TO (Invitrogen #V6520-20) plasmid. Flp-in T-Rex-293 cells (Invitorogen #R78007) were transfected with the obtained plasmid. The method of transfection was conducted in accordance with the protocol of the product.
as §1, with “method was” for “method is”, “#Q10019) was” for “#Q10019) is”, “medium was” for “medium is”, “cells were” for “cells are”, “cAMP was” for “cAMP is”, “compound was” for “compound is”
The examination was performed by the method similar to Example 87 Pharmacological experiment 1-(1), -(2).

[2] = test system: glycemic excursions after glucose administration in normal mice; assay: Oral glucose tolerance test in normal mice; format: in vivo, mice (male ICR); conditions: for Inhibition rate (%): 30 min before glucose 3 g/kg, area under the glycemic excursion curve 0-120 min versus vehicle
Protocol: In this experiment, the inhibitory effect of an analyte on glycemic excursions is examined after glucose administration in normal mice. The test methods are described below.
(§2) Male 9-week-old ICR mice, habituated to the experimental environment for two weeks, are fasted for 18 hours and used to this experiment. Mice are orally administered the analyte or vehicle (polyethylene glycol 400:ethanol:Tween 80=8:1:1). After 30 minutes, they were orally given glucose at the dose of 3 g/kg.
Blood was collected at just before the analyte or vehicle administration (−30 minutes), immediately before glucose challenge (0 minute), 20 minutes, 40 minutes, 60 minutes, and 120 minutes after glucose ingestion to determine blood glucose levels.
Inhibition rate (%) of the analyte versus vehicle in areas under the glycemic excursion curve between 0 and 120 min after glucose challenge is determined.
In this experiment, we examined the inhibitory effect of test compound on glycemic excursions after glucose administration in normal mice. The test methods are shown as follows.
as §2, with “were” for “are”, “test compound” for “analyte”, “400:ethanol:Tween80=8:1:1), and after” for “400:ethanol:Tween 80=8:1:1). After”
Blood was collected at just before the test compound or vehicle administration (−30 min), immediately before glucose challenge (0 min), 20 min, 40 min, 60 min and 120 min after glucose ingestion and then blood glucose levels were determined.
Inhibition rate (%) of the test compound versus vehicle in areas under the glycemic excursion curve between 0 and 120 min after glucose challenge was determined.
Except for the dose of test compounds made 1 mg/kg, the examination was performed by the method similar to Example 89 oral glucose tolerance test in normal mice.

[3] = 3 mg/kg, statement in words on Table 14
[4] = 1 mg/kg, statement in words on Table 15

Compound | EC50 [1] | also measured
CC(C)(C)OC(=O)N1CCC(c2ccc(Cn3ccc4cc(S(C)(=O)=O)ccc43)nc2)CC1 [Example 1, tert-Butyl 4-[2-(5-methanesulfonylindol-1-ylmethyl)pyridin-5-yl]piperidine-1-carboxylate] | 0.0212 µM | Inhibition rate (%) ([2]; 3 mg/kg oral): 37.9%; inhibitory effect on glycemic excursions (in words) [2, 3]: excellent inhibitory effect on glycemic excursions; also recorded: excellent inhibitory effect of glycemic excursions
CC(C)(C)OC(=O)N1CCC(c2ccc(CN3CCc4cc(S(C)(=O)=O)ccc43)nc2)CC1 [Example 2] | 0.0205 µM | GPR119 agonist effect (in words) [1]: excellent GPR119 agonist effect; Inhibition rate (%) ([2]; 3 mg/kg oral): 33.7%; inhibitory effect on glycemic excursions (in words) [2, 3]: excellent inhibitory effect on glycemic excursions; also recorded: excellent inhibitory effect of glycemic excursions
CC(C)(C)OC(=O)N1CCC(c2ccc(C(=O)N3CCc4cc(S(C)(=O)=O)ccc43)nc2)CC1 [Example 8, tert-Butyl 4-[2-(5-methanesulfonylindoline-1-carbonyl)pyridin-5-yl]piperidine-1-carboxylate] |  | melting point: 202 to 205 °C
CC(C)(C)OC(=O)N1CCC(c2ccc(COc3ccc4c(c3)C=CS4(=O)=O)nc2)CC1 [Example 10, tert-Butyl 4-[2-(1,1-dioxo-1H-benzo[b]thiophen-5-yloxymethyl)pyridin-5-yl]piperidine-1-carboxylate] | 0.353 µM | melting point: 154 to 157 °C
CC(C)(C)OC(=O)N1CCC(c2ccc(Cn3ccc4cc(S(C)(=O)=O)c(F)cc43)nc2)CC1 [Example 24, tert-Butyl 4-[2-(6-fluoro-5-methanesulfonylindol-1-ylmethyl)pyridin-5-yl]piperidine-1-carboxylate] | 0.019 µM | Inhibition rate (%) ([2]; 1 mg/kg oral): 37.9%; inhibitory effect on glycemic excursions (in words) [2, 4]: excellent inhibitory effect on glycemic excursions; also recorded: excellent inhibitory effect of glycemic excursions
CC(C)OC(=O)N1CCC(c2ccc(Cn3ccc4cc(-n5cnnn5)cc(F)c43)nc2)CC1 [Example 54, Isopropyl 4-[2-[7-fluoro-5-(tetrazol-1-yl)indol-1-ylmethyl]pyridin-5-yl]piperidine-1-carboxylate] | 0.0096 µM | Inhibition rate (%) ([2]; 1 mg/kg oral): 36.0%; inhibitory effect on glycemic excursions (in words) [2, 4]: excellent inhibitory effect on glycemic excursions; also recorded: excellent inhibitory effect of glycemic excursions
Cc1cc(C2CCN(C(=O)OC(C)C)CC2)cnc1Cn1ccc2cc(-n3cncn3)ccc21 [Example 59, Isopropyl 4-[3-methyl-2-[5-(1,2,4-triazol-1-yl)indol-1-ylmethyl]pyridin-5-yl]piperidine-1-carboxylate] | 0.104 µM | 
CC1CN(C(=O)OC(C)(C)C)CC=C1c1ccc(Cn2ccc3c(F)c(S(C)(=O)=O)c(F)cc32)nc1 (centres unmarked) [Example 62, tert-Butyl 4-[2-(4,6-difluoro-5-methanesulfonylindol-1-ylmethyl)pyridin-5-yl]-3-methyl-3,6-dihydro-2H-pyridine-1-carboxylate] | 0.0652 µM | 
CC(C)OC(=O)N1CC=C(c2ccc(Cn3ccc4cc(-n5cnnn5)cc(F)c43)nc2)C(C)C1 (centres unmarked) [Example 67, Isopropyl 4-[2-[7-fluoro-5-(tetrazol-1-yl)indol-1-ylmethyl]pyridin-5-yl]-3-methyl-3,6-dihydro-2H-pyridine-1-carboxylate] | 0.0459 µM | 
C[C@H]1C=C(c2ccc(Cn3ccc4cc(S(C)(=O)=O)ccc43)nc2)C[C@H](C)N1C(=O)OC(C)(C)C [Example 68, tert-Butyl (2S,6S)-2,6-dimethyl-4-[2-(5-methanesulfonylindol-1-ylmethyl)pyridin-5-yl]-3,6-dihydro-2H-pyridine-1-carboxylate] | 0.0968 µM | 

Now from value to compound, other results behind:

EC50 [1] | Compound | also measured
0.0175 µM | C[C@H]1CC(c2ccc(Cn3ccc4cc(S(C)(=O)=O)ccc43)nc2)C[C@H](C)N1C(=O)OC(C)(C)C (stereo partly drawn) [Example 69, tert-Butyl (2S,6S)-2,6-dimethyl-4-[2-(5-methanesulfonylindol-1-ylmethyl)pyridin-5-yl]piperidine-1-carboxylate] | 
0.191 µM | COC(=O)c1ccc2c(ccn2Cc2ncc(C3CCN(C(=O)OC(C)(C)C)CC3)cc2F)c1 [Example 71, tert-Butyl 4-[3-fluoro-2-[5-(methoxycarbonyl)indol-1-ylmethyl)pyridin-5-yl]piperidine-1-carboxylate] | 
0.0324 µM | CCC1CN(C(=O)OC(C)(C)C)CC=C1c1ccc(Cn2ccc3cc(S(C)(=O)=O)ccc32)nc1 (centres unmarked) [Example 73, tert-Butyl 3-ethyl-4-[2-(5-methanesulfonylindol-1-ylmethyl)pyridin-5-yl]-3,6-dihydro-2H-pyridine-1-carboxylate] | 
0.0426 µM | CC(C)(C)OC(=O)N1CCC(F)(c2ccc(Cn3ccc4cc(S(C)(=O)=O)ccc43)nc2)CC1 [Example 76, tert-Butyl 4-fluoro-4-[2-(5-methanesulfonylindol-1-ylmethyl)pyridin-5-yl]piperidine-1-carboxylate] | 
0.0104 µM | CC(C)OC(=O)N1CCC(c2cnc(Cn3ccc4cc(-n5cnnn5)cc(F)c43)c(F)c2)CC1 [Example 83, Isopropyl 4-[3-fluoro-2-[7-fluoro-5-(tetrazol-1-yl)indol-1-ylmethyl]pyridin-5-yl]piperidine-1-carboxylate] | GPR119 agonist effect (in words) [1]: excellent GPR119 agonist effect
